Structures are written as SMILES. Converted amounts (≈) assume the structure as drawn. A value given as a limit tells only on which side of the number the result lay.

Data on seven compounds can be found in US20240270762A1, “PENICILLIN-BINDING PROTEIN INHIBITORS” (priority 2021, published 2024).

The target of one assay is T1, A. baumannii PBP1a (Acinetobacter baumannii, UniProt A0ABX6CK30).
T1 sequence (A0ABX6CK30 1-851): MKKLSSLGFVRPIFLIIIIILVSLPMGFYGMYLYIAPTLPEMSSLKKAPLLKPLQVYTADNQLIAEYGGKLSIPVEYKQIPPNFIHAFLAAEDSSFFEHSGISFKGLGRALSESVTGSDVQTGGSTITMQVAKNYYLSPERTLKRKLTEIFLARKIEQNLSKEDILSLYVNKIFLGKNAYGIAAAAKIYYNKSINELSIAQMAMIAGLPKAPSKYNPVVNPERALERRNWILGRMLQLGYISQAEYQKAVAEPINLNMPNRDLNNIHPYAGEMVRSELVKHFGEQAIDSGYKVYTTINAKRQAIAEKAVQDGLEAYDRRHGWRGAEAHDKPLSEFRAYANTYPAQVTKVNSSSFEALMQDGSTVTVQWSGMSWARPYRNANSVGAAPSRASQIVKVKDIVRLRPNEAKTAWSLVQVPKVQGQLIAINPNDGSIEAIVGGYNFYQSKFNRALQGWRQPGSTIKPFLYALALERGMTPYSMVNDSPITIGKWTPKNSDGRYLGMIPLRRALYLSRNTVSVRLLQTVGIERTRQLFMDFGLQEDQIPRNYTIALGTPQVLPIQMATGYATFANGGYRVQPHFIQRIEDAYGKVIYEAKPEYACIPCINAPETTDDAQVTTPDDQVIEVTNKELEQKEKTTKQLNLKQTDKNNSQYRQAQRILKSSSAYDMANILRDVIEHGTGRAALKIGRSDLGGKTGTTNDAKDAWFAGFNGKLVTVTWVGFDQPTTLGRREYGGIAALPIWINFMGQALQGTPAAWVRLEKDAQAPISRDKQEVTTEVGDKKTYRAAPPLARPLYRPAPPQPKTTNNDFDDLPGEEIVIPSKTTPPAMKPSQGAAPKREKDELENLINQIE
The assay is described as follows: Bocillin-FL competition binding via gel filtration, A. baumannii PBP1a. The settings on record: competition binding assay using Bocillin-FL via gel filtration; read-out: A. baumannii PBP1a Potency. Summed up: (§1)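 Enzyme was pre-incubated with rising inhibitor concentrations, then Bocillin-FL was added and incubated 15 minutes more. Bound probe was separated by gel filtration and fluorescence read. EC50 came from fitting fraction of PBP labelled versus inhibitor concentration to a Hill equation with ymin, ymax and n.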
For orientation: Size exclusion chromatography separates by hydrodynamic size, large species first.

Another assay addresses A. baumannii PBP2 (Acinetobacter baumannii, UniProt D0C8Z9). Nature of the assay: Bocillin-FL competition binding via gel filtration, A. baumannii PBP2. Summed up: as §1
The subject of a further assay is P. aeruginosa ATCC 27853. Nature of the assay: microbe, parasite or virus in culture. As to conditions: Pseudomonas aeruginosa, ATCC27853, read-out: Minimum inhibitory concentration, P. aeruginosa ATCC 27853. In kind it is cell-based.
Another assay concerns A. baumannii ATCC 17978. Nature of the assay: microbe, parasite or virus in culture. It counts as cell-based. The settings on record: Acinetobacter baumannii, ATCC17978, read-out: MIC, A. baumannii ATCC 17978.
Another assay has as its system A. baumannii ATCC 19606. Nature of the assay: microbe, parasite or virus in culture. In kind it is cell-based. The settings on record: Acinetobacter baumannii, ATCC19606, read-out: MIC, A. baumannii ATCC 19606.
Assay [1] has as its system P. aeruginosa (ΔmexAB-oprM). Nature of the assay: Broth microdilution MIC in iron-depleted CAMHB (IDM). It counts as cell-based. The settings on record: Pseudomonas aeruginosa; iron-depleted CAMHB (IDM); […]; read-out: Minimum inhibitory concentration, P. aeruginosa ΔmexAB-oprM. (In general: Broth dilution looks for growth in wells or tubes with falling amounts of substance.)

The next assay deals with P. aeruginosa CDC-0054. Nature of the assay: microbe, parasite or virus in culture. In kind it is cell-based. The settings on record: Pseudomonas aeruginosa, CDC0054, read-out: Minimum inhibitory concentration, P. aeruginosa CDC-0054.
The test system of a further assay is A. baumannii 1258916. The assay is described as follows: microbe, parasite or virus in culture. In kind it is cell-based, Acinetobacter baumannii. The settings on record: Acinetobacter baumannii, 1258916, read-out: MIC, A. baumannii 1258916.
A further assay has as its system A. baumannii CDC-0036. The assay is described as follows: microbe, parasite or virus in culture. In kind it is cell-based. As to conditions: Acinetobacter baumannii, CDC0036, read-out: MIC, A. baumannii CDC-0036.
For the next assay, the system named is A. baumannii CDC-0045. Nature of the assay: microbe, parasite or virus in culture. It counts as cell-based. The settings on record: Acinetobacter baumannii, CDC0045, read-out: MIC, A. baumannii CDC-0045.
Assay [2] deals with B. humptydooensis ATCC BAA-2767. The assay is described as follows: microbe, parasite or virus in culture. It counts as cell-based. The settings on record: Burkholderia humptydooensis, ATCCBAA2767, read-out: Minimum inhibitory concentration (MIC), B. humptydooensis ATCC BAA-2767.
For the next assay, the system named is P. aeruginosa CDC-0110. The assay is described as follows: microbe, parasite or virus in culture. In kind it is cell-based. As to conditions: Pseudomonas aeruginosa, CDC0110, read-out: Minimum inhibitory concentration, P. aeruginosa CDC-0110.

A. baumannii PBP2, sequence (D0C8Z9 whole entry): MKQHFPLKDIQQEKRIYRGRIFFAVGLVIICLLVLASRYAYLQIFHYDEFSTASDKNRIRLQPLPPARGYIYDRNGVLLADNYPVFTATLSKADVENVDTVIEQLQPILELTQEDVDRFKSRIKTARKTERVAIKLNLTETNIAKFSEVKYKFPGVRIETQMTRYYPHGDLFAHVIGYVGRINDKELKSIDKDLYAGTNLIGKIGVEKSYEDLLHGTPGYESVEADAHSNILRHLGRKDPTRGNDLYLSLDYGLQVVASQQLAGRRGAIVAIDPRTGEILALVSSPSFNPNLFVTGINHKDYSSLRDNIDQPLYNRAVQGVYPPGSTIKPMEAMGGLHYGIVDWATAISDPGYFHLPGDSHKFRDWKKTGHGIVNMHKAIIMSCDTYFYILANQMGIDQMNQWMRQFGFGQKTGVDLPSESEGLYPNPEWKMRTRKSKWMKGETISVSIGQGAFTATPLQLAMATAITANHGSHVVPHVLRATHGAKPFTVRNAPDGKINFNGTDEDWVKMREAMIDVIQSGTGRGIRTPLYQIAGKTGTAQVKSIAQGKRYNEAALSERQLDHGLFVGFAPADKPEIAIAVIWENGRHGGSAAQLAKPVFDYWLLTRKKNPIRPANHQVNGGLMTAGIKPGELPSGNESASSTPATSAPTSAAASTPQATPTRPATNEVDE

Turning to `O=C(O)c1c(F)ccc2c1OB(O)[C@@H](NC(=O)C(NC(=O)N1CCN(C3CCN(C(=O)c4ccc(O)cc4O)CC3)C(=O)C1=O)c1cc(F)c(O)c(O)c1Cl)C2` (stereo partly drawn) [Example 476, (3R)-3-(2-(2-chloro-5-fluoro-3,4-dihydroxyphenyl)-2-(4-(1-(2,4-dihydroxybenzoyl)piperidin-4-yl)-2,3-dioxopiperazine-1-carboxamido)acetamido)-7-fluoro-2-hydroxy-3,4-dihydro-2H-benzo[e][1,2]oxaborinine-8-carboxylic acid], the EC50 at A. baumannii PBP1a was 10 to 50 µM; at A. baumannii PBP2 it was less than 10 µM. Besides, the MIC (with P. aeruginosa ATCC 27853; with A. baumannii ATCC 17978; in the assay on A. baumannii ATCC 19606; in [1]; in the assay on P. aeruginosa CDC-0054; in the assay on A. baumannii 1258916) was less than 1 µg/mL each time. Besides, the MIC (with A. baumannii CDC-0036; in the assay on A. baumannii CDC-0045; in [2]; in the assay on P. aeruginosa CDC-0110) was less than 1 µg/mL throughout.

Regarding `O=C(O)c1c(F)ccc2c1OB(O)[C@@H](NC(=O)[C@H](NC(=O)N1CCN(C3CCN(C(=O)Nc4ccc(O)cc4)CC3)C1=O)c1cc(F)c(O)c(O)c1Cl)C2` (single isomer, unassigned) [Example 468], the EC50 on A. baumannii PBP1a and on A. baumannii PBP2 was less than 10 µM in each case. The MIC (with P. aeruginosa ATCC 27853; in the assay on A. baumannii ATCC 17978; in the assay with A. baumannii ATCC 19606; in [1]; in the assay on P. aeruginosa CDC-0054; with A. baumannii 1258916) was less than 1 µg/mL in each case. For the same compound, the MIC (with A. baumannii CDC-0036; with A. baumannii CDC-0045; in [2]; in the assay on P. aeruginosa CDC-0110) was less than 1 µg/mL throughout.

Take `O=C(O)c1c(F)ccc2c1OB(O)[C@@H](NC(=O)C(NC(=O)N1CCN(C3CCN(C(=O)c4ccc(O)cc4)CC3)C(=O)C1=O)c1cc(F)c(O)c(O)c1Cl)C2` (stereo partly drawn) [Example 427, (3R)-3-(2-(2-chloro-5-fluoro-3,4-dihydroxyphenyl)-2-(4-(1-(4-hydroxybenzoyl)piperidin-4-yl)-2,3-dioxopiperazine-1-carboxamido)acetamido)-7-fluoro-2-hydroxy-3,4-dihydro-2H-benzo[e][1,2]oxaborinine-8-carboxylic acid]: the EC50 on A. baumannii PBP1a and on A. baumannii PBP2 was less than 10 µM each time. In addition, the MIC in the assay with P. aeruginosa ATCC 27853 is less than 1 µg/mL; in the assay with A. baumannii ATCC 17978, less than 1 µg/mL; in the assay with A. baumannii ATCC 19606 it was less than 1 µg/mL; in [1], less than 1 µg/mL; with P. aeruginosa CDC-0054, 2 to 4 µg/mL (≈ 2.54 to 5.09 µM); in the assay with A. baumannii 1258916, less than 1 µg/mL. Also, the MIC (with A. baumannii CDC-0036; in the assay with A. baumannii CDC-0045; in [2]; in the assay on P. aeruginosa CDC-0110) was less than 1 µg/mL each time.

Take `O=C(O)c1c(F)ccc2c1OB(O)[C@@H](NC(=O)C(NC(=O)N1CCN(CC3CCN(C(=O)c4cccc(O)c4)CC3)C(=O)C1=O)c1cc(F)c(O)c(O)c1Cl)C2` (stereo partly drawn) [Example 475, (3R)-3-(2-(2-chloro-5-fluoro-3,4-dihydroxyphenyl)-2-(4-((1-(3-hydroxybenzoyl)piperidin-4-yl)methyl)-2,3-dioxopiperazine-1-carboxamido)acetamido)-7-fluoro-2-hydroxy-3,4-dihydro-2H-benzo[e][1,2]oxaborinine-8-carboxylic acid]: the EC50 was 10 to 50 µM on A. baumannii PBP1a and less than 10 µM at A. baumannii PBP2. Moreover, the MIC with P. aeruginosa ATCC 27853 is 2 to 4 µg/mL (≈ 2.5 to 5 µM); with A. baumannii ATCC 17978, less than 1 µg/mL; in the assay with A. baumannii ATCC 19606, less than 1 µg/mL; in assay [1], less than 1 µg/mL; with P. aeruginosa CDC-0054, less than 1 µg/mL; in the assay with A. baumannii 1258916, less than 1 µg/mL. For the same compound, the MIC in the assay with A. baumannii CDC-0036 is 2 to 4 µg/mL (≈ 2.5 to 5 µM); in the assay on A. baumannii CDC-0045, less than 1 µg/mL; in assay [2] it was 2 to 4 µg/mL (≈ 2.5 to 5 µM); in the assay on P. aeruginosa CDC-0110, less than 1 µg/mL.

On to `O=C(O)c1c(F)ccc2c1OB(O)[C@@H](NC(=O)C(NC(=O)N1CCN(CC3CCN(C(=O)Nc4cccc(O)c4)CC3)C(=O)C1=O)c1cc(F)c(O)c(O)c1Cl)C2` (stereo partly drawn) [Example 477, (3R)-3-(2-(2-chloro-5-fluoro-3,4-dihydroxyphenyl)-2-(4-((1-((3-hydroxyphenyl)carbamoyl)piperidin-4-yl)methyl)-2,3-dioxopiperazine-1-carboxamido)acetamido)-7-fluoro-2-hydroxy-3,4-dihydro-2H-benzo[e][1,2]oxaborinine-8-carboxylic acid], for which the values for the EC50 on A. baumannii PBP1a and on A. baumannii PBP2 were 10 to 50 µM and less than 10 µM, respectively. Besides, the MIC (with P. aeruginosa ATCC 27853; in the assay on A. baumannii ATCC 17978; with A. baumannii ATCC 19606; in assay [1]; in the assay with P. aeruginosa CDC-0054; with A. baumannii 1258916) was less than 1 µg/mL each time. For the same compound, the MIC with A. baumannii CDC-0036 was 2 to 4 µg/mL (≈ 2.45 to 4.91 µM); in the assay with A. baumannii CDC-0045, less than 1 µg/mL; in [2], less than 1 µg/mL; in the assay with P. aeruginosa CDC-0110, less than 1 µg/mL.

For `O=C(O)c1c(F)ccc2c1OB(O)[C@@H](NC(=O)C(NC(=O)N1CCN(C3CCN(C(=O)Nc4cccc(O)c4F)CC3)C(=O)C1=O)c1cc(F)c(O)c(O)c1Cl)C2` (stereo partly drawn) [Example 478, (3R)-3-(2-(2-chloro-5-fluoro-3,4-dihydroxyphenyl)-2-(4-(1-((2-fluoro-3-hydroxyphenyl)carbamoyl)piperidin-4-yl)-2,3-dioxopiperazine-1-carboxamido)acetamido)-7-fluoro-2-hydroxy-3,4-dihydro-2H-benzo[e][1,2]oxaborinine-8-carboxylic acid], the EC50 at A. baumannii PBP1a and at A. baumannii PBP2 was 10 to 50 µM throughout. For the same compound, the MIC was 2 to 4 µg/mL (≈ 2.44 to 4.88 µM) in the assay with P. aeruginosa ATCC 27853; less than 1 µg/mL in the assay with A. baumannii ATCC 17978; less than 1 µg/mL in the assay on A. baumannii ATCC 19606; less than 1 µg/mL in assay [1]; 2 to 4 µg/mL (≈ 2.44 to 4.88 µM) in the assay with P. aeruginosa CDC-0054; less than 1 µg/mL in the assay on A. baumannii 1258916. The MIC was 2 to 4 µg/mL (≈ 2.44 to 4.88 µM) with A. baumannii CDC-0036, less than 1 µg/mL in the assay on A. baumannii CDC-0045, 8 to 16 µg/mL (≈ 9.77 to 19.5 µM) in assay [2] and 2 to 4 µg/mL (≈ 2.44 to 4.88 µM) with P. aeruginosa CDC-0110.

`O=C(O)c1c(F)ccc2c1OB(O)[C@@H](NC(=O)[C@@H](NC(=O)N1CCN(C3CCN(C(=O)Nc4ccc(O)cc4)CC3)C1=O)c1cc(F)c(O)c(O)c1Cl)C2` (single isomer, unassigned) [Example 467]: the EC50 on A. baumannii PBP1a is less than 10 µM. For the same compound, the MIC was less than 1 µg/mL in the assay on P. aeruginosa ATCC 27853; less than 1 µg/mL in the assay with A. baumannii ATCC 17978; less than 1 µg/mL in the assay with A. baumannii ATCC 19606; less than 1 µg/mL in [1]; 2 to 4 µg/mL (≈ 2.59 to 5.18 µM) in the assay on P. aeruginosa CDC-0054; less than 1 µg/mL in the assay on A. baumannii 1258916. The MIC was less than 1 µg/mL in the assay on A. baumannii CDC-0036, less than 1 µg/mL in the assay on A. baumannii CDC-0045, 2 to 4 µg/mL (≈ 2.59 to 5.18 µM) in [2] and less than 1 µg/mL in the assay with P. aeruginosa CDC-0110.
